The target of series [1] is T1, CoV-2 Mac1 (Severe acute respiratory syndrome coronavirus 2, UniProt P0DTC1). The series is described as follows: biochemical. It counts as binding.
For series [2], the target named is T1, CoV-2 Mac1. The series is described as follows: Microscale thermophoresis (MST) binding affinity measurements with CoV-2 Mac1. The settings on record: preliminary measurements.
For series [3] the following is noted: pH 7.5; cited from earlier work.

This is an account of results in US20240109892A1, “POLY(ADP-RIBOSE) GLYCOHYDROLASE (PARG) INHIBITORS AGAINST COVID MACRODOMAIN AND METHODS OF USING THE SAME” (BOARD OF REGENTS, THE UNIVERSITY OF TEXAS SYSTEM, priority 2021, published 2024).

Like-named read-outs stand apart in the source and are kept apart here.

For `Nc1ncnc2c1ncn2[C@@H]1O[C@H](COP(=O)(O)OP(=O)(O)OC[C@H]2OC(O)[C@H](O)[C@@H]2O)[C@@H](O)[C@H]1O` (stereo partly shown) [ADPr, ADP-ribose], at CoV-2 Mac1 [1] (ITC, 25° C.), the ΔG was -6.74 kcal/mol, the ΔH is -9.18 kcal/mol and the “−TΔS” value is on record as 2.43 kcal/mol. The Kd at CoV-2 Mac1 [1] (ITC, 25° C., 25 mM HEPES pH 7.5, 150 mM NaCl, read-out: Kd) amounted to 11.6 µM. Also, the dissociation constant Kd at CoV-2 Mac1 [1] (read-out: dissociation constant Kd) lay within 10 to 12 µM.

On to `Cn1c(=O)c2[nH]c(SCCCNC(=S)NCCN3CCOCC3)nc2n(C)c1=O` [PARG-329], for which, on CoV-2 Mac1 [2], the “binding to the Mac1 domain by MST” value is “micromolar affinity”. In addition, the “binding to the Mac1 domain by ITC” value at CoV-2 Mac1 [1] is recorded as “fails to detect a robust interaction”.

As for `Cn1c(=O)c2[nH]c(SCCC(=O)NS(=O)(=O)CCN3CCOCC3)nc2n(C)c1=O` [PARG-345, 3-((1,3-dimethyl-2,6-dioxo-2,3,6,7-tetrahydro-1H-purin-8-yl)thio)-N-((2-morpholinoethyl)sulfonyl)propanamide], at CoV-2 Mac1 [2], the “binding to the Mac1 domain by MST” value is given as “micromolar affinity”. For the same molecule, the “binding to the Mac1 domain by ITC” value on CoV-2 Mac1 [1] is given as “fails to detect a robust interaction”. In series [3], the “pKa of morpholine nitrogen atom” value was about 8.3.
